From paper PMC10932284 (International Journal of Molecular Sciences, 2024)
Where two headings read alike, the source gives them in different places.

Experiments:
[1] = test system: M. tuberculosis strain resistant to both rifampicin and isoniazid; type: cell-based, Mycobacterium tuberculosis; settings: for number of M. tuberculosis colonies/standard inoculum volume (0.2 mL): 28 days, 37 °C; for growth inhibition of mycobacteria (in words): both concentrations (1 and 2 µg/mL)
[2] = test system: M. tuberculosis strain susceptible to rifampicin and resistant to isoniazid; type: cell-based, Mycobacterium tuberculosis; settings: 28 days, 37 °C
[3] = 1 µg/mL in Lowenstein Jensen medium
[4] = 2 µg/mL in Lowenstein Jensen medium

Row | Compound | number of M. tuberculosis colonies/standard inoculum volume (0.2 mL) [1, 3] | number of M. tuberculosis colonies/standard inoculum volume (0.2 mL) [1, 4] | growth inhibition of mycobacteria (in words) [1] | number of M. tuberculosis colonies/standard inoculum volume (0.2 mL) [2, 4] | number of M. tuberculosis colonies/standard inoculum volume (0.2 mL) [2, 3]
1 | O=C1Nc2ccc(O)cc2S(=O)(=O)N1 [2t] | 0 colonies | 0 colonies | inhibited | 0 colonies | –
2 | Cc1ccc2c(c1)S(=O)(=O)NC(=O)N2 [2c] | 0 colonies | 0 colonies | inhibited | 0 colonies | 0 colonies
3 | CC(=O)Nc1nnc(S(N)(=O)=O)s1 [AAZ, acetazolamide, reference compound] | 0 colonies | 0 colonies | – | 0 colonies | 0 colonies
4 | CC(=O)/N=c1/sc(S(N)(=O)=O)nn1C [MTZ, reference compound] | 0 colonies | 0 colonies | – | 0 colonies | 0 colonies
5 | Cc1cc(C)c2c(c1)S(=O)(=O)NC(=O)N2 [2d] | 0 colonies | 0 colonies | inhibited | 0 colonies | 0 colonies
6 | O=C1Nc2ccc(F)cc2S(=O)(=O)N1 [2h] | 0 colonies | 0 colonies | inhibited | 0 colonies | 0 colonies
7 | O=C1Nc2ccccc2S(=O)(=O)N1 [2a] | 0 colonies | 0 colonies | inhibited | 0 colonies | 0 colonies
